For data set [1], the system named is S. epidermidis 154. The data set is described as follows: Broth microdilution MIC/MBC. The data set is classed as cell-based. On the procedure: (§1) The broth microdilution method was used to determine minimal inhibitory concentration (MIC) and minimal bactericidal concentration (MBC). Briefly, two-fold serial dilutions of the peptides were used and the final concentrations ranged between 0.097–50 µM. The final concentrations of the antibiotics vancomycin and teicoplanin ranged between 0.097–50 µg/ml, while rifampicin ranged between 0.0019–1 µg/ml and gentamicin 0.0097–5 µg/ml. The inhibitory and bactericidal effects of peptides together with antibiotics were studied by using the same concentration series of antibiotics with constant, sub-MIC concentrations, of the peptides in all the wells (see figure legends). The plates were then incubated at 37 °C for 20 h. […] MBC was determined as the lowest concentration where no growth of bacterial colonies (10 µl) was observed on blood-agar plates. All experiments were repeated at least three times. The combined effect of teicoplanin and PLNC8 αβ against S. epidermidis ATCC 12228 was evaluated by the microdilution checkerboard method. Briefly, two-fold serial dilutions of the antibiotics and PLNC8 αβ were prepared together in microtiter plates, either alone or in combination. The MIC values were determined visually and spectroscopically, and the fractional inhibitory concentration (ΣFIC) was calculated by the equation (MIC of PLNC8 αβ in combination/MIC of PLNC8 αβ alone) + (MIC of antibiotic in combination/MIC of antibiotic alone). Synergy was defined as ΣFIC ≤ 0.5, additive when 0.5 <ΣFIC ≤1, indifferent when 1 <ΣFIC <2 and antagonistic when ΣFIC ≥ 2.
A general note: In broth dilution the organism is exposed to a series of concentrations in liquid medium.

Data set [2] has as its system S. epidermidis ATCC 12228. Description: microbe, parasite or virus in culture. On the procedure:
as §1

Data set [3] concerns S. epidermidis 157 (hGISE). Description: Broth microdilution MIC/MBC. In kind it is cell-based. Here is the method:
as §1, with “legends).” for “legends). The plates were then incubated at 37 °C for 20 h.”

The test system of data set [4] is S. aureus CCUG 35601 (MRSA). The data set is described as follows: Broth microdilution MIC/MBC. In kind it is cell-based. Here is the method: as §1, with “legends).” for “legends). The plates were then incubated at 37 °C for 20 h.”
Data set [5] relates to S. epidermidis 126 (hGISE). The data set is described as follows: Broth microdilution MIC/MBC. The data set is classed as cell-based. Here is the method:
as §1, with “legends).” for “legends). The plates were then incubated at 37 °C for 20 h.”

For data set [6], the system named is human erythrocytes. Description: Haemolysis. In kind it is cell-based. Conditions: isolated human erythrocytes, 1 h, 37 °C, n=3. Here is the method:
The haemolytic activity of the peptides was investigated by collecting blood from healthy volunteers in heparinized vacutainers. Briefly, the blood was centrifuged at 600 × g for 5 min and the erythrocyte pellet was washed three times in PBS. The cells were then suspended in PBS and added to 96-well plates (15% erythrocyte suspension/well), containing the peptides with two-fold serial dilution. The plates were incubated for 1 h at 37 °C followed by centrifugation for 5 min at 900 × g and measurement of the supernatants at 540 nm. Haemolytic activity (%) was calculated by subtracting the negative control from all values and normalization against the positive control (0.5% Triton X-100), that was set to 100%. All experiments, each in duplicate, were repeated three times.

Setting [7] is: Staphylococcus epidermidis, 154, 20 h, antibiotic alone, 20 h, read-out: MBC.
Setting [8] is: Staphylococcus epidermidis, ATCC12228, 20 h.
Where [9] appears, read: Staphylococcus epidermidis, 154, 20 h.
Setting [10] is: Staphylococcus epidermidis, 24 h.
The mark [11] stands for this setting: antibiotic alone, broth microdilution, 37 °C, 20 h.
The mark [12] stands for this setting: S. epidermidis 157, antibiotic alone, after 24 h.
[13] abbreviates: MRSA, antibiotic alone, after 24 h.
Where [14] appears, read: S. epidermidis 126, antibiotic alone, after 24 h.

Read-outs that look alike come from different tables or passages of the source. Residues, ends and D or L forms follow the SMILES beside them.

For the molecule `CNC(C)C1CCC(N)C(OC2C(N)CC(N)C(OC3OCC(C)(O)C(NC)C3O)C2O)O1` (centres unmarked) [Gentamicin, gentamicin], the values for the MBC in data set [1] (setting [7]) and in data set [2] (setting [8]) were over 100 µg/mL and 0.31 µg/mL, respectively. Also, the MIC in data set [1] (Staphylococcus epidermidis, 154, 20 h, antibiotic alone, 20 h, read-out: MIC) was over 100 µg/mL; in data set [2] (setting [8]) it was 0.31 µg/mL.

In the case of `CO[C@H]1/C=C/O[C@@]2(C)Oc3c(C)c(O)c4c(O)c(c(/C=N/N5CCN(C)CC5)c(O)c4c3C2=O)NC(=O)/C(C)=C\C=C\[C@H](C)[C@H](O)[C@@H](C)[C@@H](O)[C@@H](C)[C@H](OC(C)=O)[C@@H]1C` [Rifampicin, rifampicin], the MBC in data set [1] (setting [7]) was 0.05 µg/mL; in data set [1] (antibiotic alone, 20 h) it was 0.063 µg/mL; in data set [2] (setting [8]) it was 0.063 µg/mL. For the same molecule, the MIC in data set [2] (setting [8]) worked out at 0.063 µg/mL.

On to `CN[C@H](CC(C)C)C(=O)N[C@H]1C(=O)N[C@@H](CC(N)=O)C(=O)N[C@H]2C(=O)N[C@H]3C(=O)N[C@H](C(=O)N[C@H](C(=O)O)c4cc(O)cc(O)c4-c4cc3ccc4O)[C@H](O)c3ccc(c(Cl)c3)Oc3cc2cc(c3O[C@@H]2O[C@H](CO)[C@@H](O)[C@H](O)[C@H]2O[C@H]2C[C@](C)(N)[C@H](O)[C@H](C)O2)Oc2ccc(cc2Cl)[C@H]1O` [Vancomycin, vancomycin], for which the MBC in data set [1] (setting [9]) was 3.1 µg/mL; in data set [2] (setting [8]), 3.1 µg/mL; in data set [3] (setting [10]), 6.25 µg/mL; in data set [4] (Staphylococcus aureus, 24 h), 3.1 µg/mL; in data set [5] (setting [10]), 3.1 µg/mL. Also, the MIC in data set [1] (setting [9]) came out at 1.5 µg/mL; in data set [2] (setting [8]), 1.5 µg/mL; in data set [3] (setting [10]), 6.25 µg/mL; in data set [5] (setting [10]) it was 3.1 µg/mL.

As to `CC(C)C[C@H](NC(=O)[C@H](Cc1ccc(O)cc1)NC(=O)[C@H](Cc1ccc(O)cc1)NC(=O)CNC(=O)[C@H](Cc1c[nH]c2ccccc12)NC(=O)[C@H](CO)NC(=O)[C@H](CO)NC(=O)[C@H](Cc1c[nH]c2ccccc12)NC(=O)[C@H](CC(C)C)NC(=O)[C@H](CCCCN)NC(=O)[C@@H](NC(=O)[C@@H](NC(=O)[C@H](CC(C)C)NC(=O)[C@@H](N)CC(=O)O)[C@@H](C)O)[C@@H](C)O)C(=O)NCC(=O)O` [α1-15] (H-DLTTKLWSSWGYYLG-OH), the “cytotoxic at relevant concentrations (<50 µM), determined by haemolytic activity” value (“cytotoxic at relevant concentrations” for short) in data set [6] is “nor the truncated α1–22, α1–15, β7–34, β7–20 and β1–20 were cytotoxic”.

With `CC(C)C[C@H](NC(=O)[C@H](CC(N)=O)NC(=O)[C@H](Cc1c[nH]c2ccccc12)NC(=O)[C@H](CCCNC(=N)N)NC(=O)[C@H](C)NC(=O)[C@H](CCCCN)NC(=O)[C@H](CCCCN)NC(=O)CNC(=O)[C@H](CC(C)C)NC(=O)[C@H](Cc1ccc(O)cc1)NC(=O)[C@H](Cc1ccc(O)cc1)NC(=O)CNC(=O)[C@H](Cc1c[nH]c2ccccc12)NC(=O)[C@H](CO)NC(=O)[C@H](CO)NC(=O)[C@H](Cc1c[nH]c2ccccc12)NC(=O)[C@H](CC(C)C)NC(=O)[C@H](CCCCN)NC(=O)[C@@H](NC(=O)[C@@H](NC(=O)[C@H](CC(C)C)NC(=O)[C@@H](N)CC(=O)O)[C@@H](C)O)[C@@H](C)O)C(=O)O` [α1-22] (H-DLTTKLWSSWGYYLGKKARWNL-OH), the “cytotoxic at relevant concentrations” value in data set [6] is “nor the truncated α1–22, α1–15, β7–34, β7–20 and β1–20 were cytotoxic”.

Turning to `CC[C@H](C)[C@H](NC(=O)CNC(=O)[C@H](CC(C)C)NC(=O)[C@@H](NC(=O)[C@H](Cc1ccc(O)cc1)NC(=O)[C@@H](NC(=O)[C@H](CO)NC(=O)[C@@H](NC(=O)[C@@H]1CCCN1C(=O)[C@@H](NC(=O)[C@@H](N)CO)C(C)C)[C@@H](C)O)C(C)C)[C@@H](C)O)C(=O)N[C@@H](CCCCN)C(=O)N[C@H](C(=O)N[C@@H](CC(C)C)C(=O)N[C@@H](Cc1c[nH]c2ccccc12)C(=O)N[C@@H](CO)C(=O)N[C@@H](C)C(=O)N[C@@H](Cc1ccc(O)cc1)C(=O)N[C@@H](CCCCN)C(=O)N[C@@H](Cc1c[nH]cn1)C(=O)O)[C@@H](C)CC` [β1-20] (H-SVPTSVYTLGIKILWSAYKH-OH), the “cytotoxic at relevant concentrations” value in data set [6] was “nor the truncated α1–22, α1–15, β7–34, β7–20 and β1–20 were cytotoxic”.

As for `CC[C@H](C)[C@H](NC(=O)CNC(=O)[C@H](CC(C)C)NC(=O)[C@@H](NC(=O)[C@@H](N)Cc1ccc(O)cc1)[C@@H](C)O)C(=O)N[C@@H](CCCCN)C(=O)N[C@H](C(=O)N[C@@H](CC(C)C)C(=O)N[C@@H](Cc1c[nH]c2ccccc12)C(=O)N[C@@H](CO)C(=O)N[C@@H](C)C(=O)N[C@@H](Cc1ccc(O)cc1)C(=O)N[C@@H](CCCCN)C(=O)N[C@@H](Cc1c[nH]cn1)C(=O)O)[C@@H](C)CC` [β7-20] (H-YTLGIKILWSAYKH-OH), the “cytotoxic at relevant concentrations” value in data set [6] was “nor the truncated α1–22, α1–15, β7–34, β7–20 and β1–20 were cytotoxic”.

Consider `CC[C@H](C)[C@H](NC(=O)CNC(=O)[C@H](CC(C)C)NC(=O)[C@@H](NC(=O)[C@@H](N)Cc1ccc(O)cc1)[C@@H](C)O)C(=O)N[C@@H](CCCCN)C(=O)N[C@H](C(=O)N[C@@H](CC(C)C)C(=O)N[C@@H](Cc1c[nH]c2ccccc12)C(=O)N[C@@H](CO)C(=O)N[C@@H](C)C(=O)N[C@@H](Cc1ccc(O)cc1)C(=O)N[C@@H](CCCCN)C(=O)N[C@@H](Cc1c[nH]cn1)C(=O)N[C@@H](CCCNC(=N)N)C(=O)N[C@@H](CCCCN)C(=O)N[C@H](C(=O)N[C@H](C(=O)N[C@@H](CCC(=O)O)C(=O)N[C@@H](CCCCN)C(=O)N[C@@H](CO)C(=O)N[C@@H](Cc1ccccc1)C(=O)N[C@@H](CC(N)=O)C(=O)N[C@@H](CCCCN)C(=O)NCC(=O)N[C@@H](Cc1ccccc1)C(=O)N[C@@H](Cc1ccc(O)cc1)C(=O)N[C@@H](Cc1c[nH]cn1)C(=O)O)[C@@H](C)CC)[C@@H](C)O)[C@@H](C)CC` [β7-34] (H-YTLGIKILWSAYKHRKTIEKSFNKGFYH-OH), for which the “cytotoxic at relevant concentrations” value in data set [6] was “nor the truncated α1–22, α1–15, β7–34, β7–20 and β1–20 were cytotoxic”.

Turning to teicoplanin, the MBC in data set [1] (antibiotic alone, 20 h) turned out to be 1.5 µg/mL; in data set [2] (setting [11]) it was 1.5 µg/mL; in data set [3] (setting [12]), 25 µg/mL; in data set [4] (setting [13]), 3.1 µg/mL; in data set [5] (setting [14]), 6.25 µg/mL. Also, the MIC in data set [1] (antibiotic alone, 20 h) came to 1.5 µg/mL; in data set [2] (setting [11]) it was 1.5 µg/mL; in data set [3] (setting [12]), 12.5 µg/mL; in data set [4] (setting [13]), 0.78 µg/mL; in data set [5] (setting [14]) it was 3.1 µg/mL.

The values above are taken from PMC7046733, “Plantaricin NC8 αβ exerts potent antimicrobial activity against Staphylococcus spp. and enhances the effects of antibiotics” (Scientific Reports, 2020).
